Holding throughout (assay type): cell-based
Common to all, as to conditions: 168 h, read-out: ED50

For one assay, the system named is Alternaria radicina. Description: In vitro bioassay, mycelia growth on PDA (Example 1).
For another assay, the system named is Fusarium graminearum. Description: microbe, parasite or virus in culture.
In assay [1] the test system is Plectosphaerella cucumerina. Briefly: In vitro bioassay, mycelia growth on PDA (Example 1).

Our source for the EC50 values is patent publication US20230053524A1, “FUNGICIDES TO PREVENT AND CONTROL FUNGAL PATHOGENS” (priority 2020, published 2023).

In the case of `CS(=O)(=O)CCCCCCCCN=C=S` [0/100, 1-Isothiocyanato-8-(methylsulfonyl)-octane], the figures for the EC50 (with Alternaria radicina; in the assay on Fusarium graminearum; in assay [1]) were 763 µM, 536 µM and 480 µM, respectively.
As for `C[S+]([O-])CCCCCCCCN=C=S` (stereo not drawn) [100/0, 1-Isothiocyanato-8-(methylsulfinyl)-octane], the EC50 in the assay on Alternaria radicina is 228 µM; in the assay with Fusarium graminearum, 331 µM; in assay [1], 312 µM.
